# Reference: PubChem BioAssay AID2060504 (Molecular Pharmacology Branch, DTP, NCI, 2025)
# System: 636577-100-R-J1-PDC complex spheroid viability
# Assay: Anticancer human tumor 636577-100-R-J1-PDC patient-derived endometrial adenocarcinoma cell line growth inhibition [GQUAD]
# Settings: for IC50: curve of first compound; for viability, T/C: stronger effect = lower value
# Summary of the method: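 Tumor cells were grown as complex spheroids with HUVEC endothelial cells and mesenchymal stem cells as stroma. G-quadruplex stabilizers were combined with targeted agents over half-log dilutions from near the clinical Cmax, or from 10 microM.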
# [1] = second compound 0.0316 µM, first compound 0.0316 µM
# [2] = second compound 0.0316 µM, first compound 0.1 µM
# [3] = second compound 0.0316 µM, first compound 0.316 µM
# [4] = second compound 0.0316 µM, first compound 1 µM
# [5] = second compound 0.0316 µM, first compound 3.16 µM
# [6] = second compound 0.0316 µM, first compound 10 µM
# [7] = second compound 0.1 µM, first compound 0.0316 µM
# [8] = second compound 0.1 µM, first compound 0.1 µM
# [9] = second compound 0.1 µM, first compound 0.316 µM
# [10] = second compound 0.1 µM, first compound 1 µM
# [11] = second compound 0.1 µM, first compound 3.16 µM
# [12] = second compound 0.1 µM, first compound 10 µM
# [13] = second compound 0.316 µM, first compound 0.0316 µM
# [14] = second compound 0.316 µM, first compound 0.1 µM
# [15] = second compound 0.316 µM, first compound 0.316 µM
# [16] = second compound 0.316 µM, first compound 1 µM
# [17] = second compound 0.316 µM, first compound 3.16 µM
# [18] = second compound 0.316 µM, first compound 10 µM
# [19] = second compound 1 µM, first compound 0.0316 µM
# [20] = second compound 1 µM, first compound 0.1 µM
# [21] = second compound 1 µM, first compound 0.316 µM
# [22] = second compound 1 µM, first compound 1 µM
# [23] = second compound 1 µM, first compound 3.16 µM
# [24] = second compound 1 µM, first compound 10 µM
# [25] = second compound 3.16 µM, first compound 0.0316 µM
# [26] = second compound 3.16 µM, first compound 0.1 µM
# [27] = second compound 3.16 µM, first compound 0.316 µM
# [28] = second compound 3.16 µM, first compound 1 µM
# [29] = second compound 3.16 µM, first compound 3.16 µM
# [30] = second compound 3.16 µM, first compound 10 µM
# [31] = second compound 10 µM, first compound 0.0316 µM
# [32] = second compound 10 µM, first compound 0.1 µM
# [33] = second compound 10 µM, first compound 0.316 µM
# [34] = second compound 10 µM, first compound 1 µM
# [35] = second compound 10 µM, first compound 3.16 µM
# [36] = second compound 10 µM, first compound 10 µM
# 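Also: viability read after seven days of drug exposure.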
# 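For viability, T/C in this document: luminescence signal used as a proxy for viable cells; 100% = DMSO vehicle control wells.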
compound,measurement,setting,value
O=C(c1cc(Cc2n[nH]c(=O)c3ccccc23)ccc1F)N1CCN(C(=O)C2CC2)CC1 + CN(C)c1ccc(Nc2c3ccc(NC(=O)CCN4CCCC4)cc3nc3cc(NC(=O)CCN4CCCC4)ccc23)cc1,IC50,second compound 0.0316 µM,1.58 µM
same,IC50,second compound 0.1 µM,1.45 µM
same,IC50,second compound 0.316 µM,3.73 µM
same,IC50,second compound 1 µM,1.36 µM
same,IC50,second compound 3.16 µM,< 0.0316 µM
same,IC50,second compound 10 µM,< 0.0316 µM
same,"viability, T/C",[1],93.1%
same,"viability, T/C",[2],54.9%
same,"viability, T/C",[3],71%
same,"viability, T/C",[4],63.8%
same,"viability, T/C",[5],37.7%
same,"viability, T/C",[6],33.2%
same,"viability, T/C",[7],69.7%
same,"viability, T/C",[8],54.2%
same,"viability, T/C",[9],52.1%
same,"viability, T/C",[10],57.7%
same,"viability, T/C",[11],46.2%
same,"viability, T/C",[12],31.7%
same,"viability, T/C",[13],50.3%
same,"viability, T/C",[14],53.6%
same,"viability, T/C",[15],64.3%
same,"viability, T/C",[16],61.5%
same,"viability, T/C",[17],50.1%
same,"viability, T/C",[18],34.1%
same,"viability, T/C",[19],63.7%
same,"viability, T/C",[20],62.4%
same,"viability, T/C",[21],60.5%
same,"viability, T/C",[22],54.3%
same,"viability, T/C",[23],38.9%
same,"viability, T/C",[24],28.8%
same,"viability, T/C",[25],29.2%
same,"viability, T/C",[26],40.2%
same,"viability, T/C",[27],34.2%
same,"viability, T/C",[28],30.8%
same,"viability, T/C",[29],25.6%
same,"viability, T/C",[30],21.1%
same,"viability, T/C",[31],5.92%
same,"viability, T/C",[32],4.61%
same,"viability, T/C",[33],4.06%
same,"viability, T/C",[34],5.25%
same,"viability, T/C",[35],6.06%
same,"viability, T/C",[36],4.36%
Cc1cccc(N(C)C(=O)C2C(O)CCN2c2nc(C)cc(C(F)(F)F)c2C#N)c1 (stereo unspecified) + Cc1[nH]c2ccc(F)cc2c1-c1nc2c3cccnc3c3ncccc3c2[nH]1,IC50,second compound 0.0316 µM,3.16 µM
same,IC50,second compound 0.1 µM,> 10 µM
same,IC50,second compound 0.316 µM,> 10 µM
same,IC50,second compound 1 µM,> 10 µM
same,IC50,second compound 3.16 µM,< 0.0316 µM
same,IC50,second compound 10 µM,> 10 µM
same,"viability, T/C",[1],89%
same,"viability, T/C",[2],77.5%
same,"viability, T/C",[3],89.5%
same,"viability, T/C",[4],39.3%
same,"viability, T/C",[5],61.9%
same,"viability, T/C",[6],61%
same,"viability, T/C",[7],76.3%
same,"viability, T/C",[8],90.3%
same,"viability, T/C",[9],81%
same,"viability, T/C",[10],57.7%
same,"viability, T/C",[11],79%
same,"viability, T/C",[12],69.2%
same,"viability, T/C",[13],71.4%
same,"viability, T/C",[14],85.8%
same,"viability, T/C",[15],97.8%
same,"viability, T/C",[16],48.6%
same,"viability, T/C",[17],77.5%
same,"viability, T/C",[18],72.4%
same,"viability, T/C",[19],62.8%
same,"viability, T/C",[20],65.3%
same,"viability, T/C",[21],72.4%
same,"viability, T/C",[22],54.9%
same,"viability, T/C",[23],49.9%
same,"viability, T/C",[24],54.2%
same,"viability, T/C",[25],37.2%
same,"viability, T/C",[26],40.3%
same,"viability, T/C",[27],54.2%
same,"viability, T/C",[28],48.6%
same,"viability, T/C",[29],39.1%
same,"viability, T/C",[30],41.3%
same,"viability, T/C",[31],65.1%
same,"viability, T/C",[32],58.8%
same,"viability, T/C",[33],80.8%
same,"viability, T/C",[34],55.1%
same,"viability, T/C",[35],81%
same,"viability, T/C",[36],56.4%
COc1ncnc(C2CC2)c1-c1ncc2cnn(Cc3ccc(-c4nc(C(F)(F)F)cn4C(C)C)cc3)c2n1 + Cc1cnc(CNC(=O)c2c(=O)c3ccc(N4CCCN(C)CC4)nc3n3c2sc2ccccc23)cn1,IC50,second compound 0.0316 µM,< 0.0316 µM
same,IC50,second compound 0.1 µM,< 0.0316 µM
same,IC50,second compound 0.316 µM,< 0.0316 µM
same,IC50,second compound 1 µM,< 0.0316 µM
same,IC50,second compound 3.16 µM,< 0.0316 µM
same,IC50,second compound 10 µM,< 0.0316 µM
same,"viability, T/C",[1],37.8%
same,"viability, T/C",[2],36%
same,"viability, T/C",[3],42.7%
same,"viability, T/C",[4],32.1%
same,"viability, T/C",[5],37.7%
same,"viability, T/C",[6],31.4%
same,"viability, T/C",[7],29.7%
same,"viability, T/C",[8],26.2%
same,"viability, T/C",[9],29.4%
same,"viability, T/C",[10],25.2%
same,"viability, T/C",[11],28%
same,"viability, T/C",[12],27.4%
same,"viability, T/C",[13],24.2%
same,"viability, T/C",[14],24.7%
same,"viability, T/C",[15],25.8%
same,"viability, T/C",[16],21.6%
same,"viability, T/C",[17],25.2%
same,"viability, T/C",[18],24.5%
same,"viability, T/C",[19],19.5%
same,"viability, T/C",[20],18.5%
same,"viability, T/C",[21],22%
same,"viability, T/C",[22],20.4%
same,"viability, T/C",[23],25.4%
same,"viability, T/C",[24],22.6%
same,"viability, T/C",[25],16.3%
same,"viability, T/C",[26],21.4%
same,"viability, T/C",[27],22.7%
same,"viability, T/C",[28],17.4%
same,"viability, T/C",[29],25.9%
same,"viability, T/C",[30],19.2%
same,"viability, T/C",[31],20.8%
same,"viability, T/C",[32],20%
same,"viability, T/C",[33],23.5%
same,"viability, T/C",[34],18.3%
same,"viability, T/C",[35],23.7%
same,"viability, T/C",[36],22%
